# From US6838560B1, “Process for manufacturing morpholino-nucleotides, and use thereof for the analysis of and labelling of nucleic acid sequences” (priority 1999, dated 2005)
# Legend:
# Type in all cases: biochemical
# Taq polymerase = molecular target: T1, Taq polymerase (Thermus aquaticus, UniProt P19821); experiment: Sequencing reaction with fluorescent primers on Bluescript plasmid DNA (Example 13); details: 200 and 500 μM; Bluescript plasmid template; FIG. 1
# T1 construct: purchased Perkin-Elmer
# Procedure: The morpholino T glycine 4 of Example 2 is tested in sequence reaction with fluorescent primers (Applied Biosystems, Perkin-Elmer, Foster City, Calif., USA) on a standard template which is a Bluescript plasmid DNA (Stratagene, La Jolla, Calif., USA). The enzyme used is a Taq polymerase (Perkin-Elmer), which is used in its buffer (TACS buffer, Perkin-Elmer).
# Two reactions are carried out with morpholino T glycine at 200 and 500 μM (Table 4), and also two control reactions (Table 5) with dideoxynucleotide T (Boehringer).
# The reaction medium, of a total volume of 10 μL, contains 125 ng of template, 1.25 pmol of fluorescent primer and the other constituents given in Tables 4 and 5. The medium is subjected to heat cycles in order to produce in number molecules of newly formed DNA strands. […]
# The products of the sequencing reactions are detected by fluorescence. The results obtained are represented in the attached figure which illustrates the detection of the products in the sequencing gel analysed by the Perkin-Elmer Analysis software, version 3.0.
# For each test, the primers are identifiable by their fluorescence properties, the ROX label (red) for the control reaction 250 μm dideoxythymidine triphosphate (dashed-curve) and the label JOE (green) for the reaction concerning the 200 μm morpholino T glycine (solid-line curve).
# [1] = molecular target: T2, Klenow exonuclease-free polymerase (Escherichia coli, UniProt P00582, D355A/E357A); experiment: Template-dependent 3' labelling / primer A extension, polyacrylamide gel; details: for enzymatic incorporation at 3' end of primer A: MATPP 400, 200, 50 μM, MATPPF 2.5 mM, 400, 200, 50 μM, 37° C., 10 minutes; for interruption of chain elongation after incorporation: with dGTP and dTTP (solution 2P), FIG. 4
# T2 construct: purchased Amersham Life Science
# Procedure: (§1) Use of morpholino A putrescine (MATPP) and morpholino A fluorescein (MATPPF) for the template-dependent 3′ labelling of DNA fragments; test of enzymatic incorporation of these compounds by three polymerases (Taq, Klenow, Klenow Exo Free) and a reverse transcriptase.
# (§2) These two nucleoside triphosphate derivatives are tested in enzymatic incorporation to label an oligonucleotide 13 bases long at its 3′ end. This labelling is referred to as “template-dependent” since the enzymes used need the complementary strand to extend the oligonucleotide according to the Watson & Crick rules. Sequence A (17870 pmol/mL) studied and also its complementary target C (16128 pmol/mL) are given in the figure below: • Target C: 3′-TGCCAACCAACCCCACCTCAACCTCTG-5′ (SEQ ID NO: 7) • Primer A: 5′-ACG GTT GGT TGG G (13 bp) (SEQ ID NO: 8) • Expected fragments: 5′-ACG GTT TGG GGT GGA (18 bp) (SEQ ID NO: 9) • and lengths (bp): 5′-ACGGTTGGTTGGGGTGGAGTTGGA (24 bp)(SEQ ID NO: 10) 5′-ACGGTTGGTTGGGGTGGAGTTGGAGA (26 bp) (SEQ ID NO: 11) 5′-ACGGTTGGTTGGGGTGGAGTTGGAGAC (27 bp) (SEQ ID NO: 12)
# (§3) Three enzymes are used for this labelling: Taq DNA polymerase (Boehringer Mannheim), the Klenow fragment (Boehringer Mannheim) and the Klenow exonuclease-free polymerase (Amersham Life Science). The primer is labelled at its 5′ end by incorporation of ^32P phosphate with the “Ready to go” T4 Polynucleotide Kinase kit (Pharmacia Biotech). The radiolabelled primer is noted A*.
# (§4) The reaction buffers for the three enzymes are prepared for 10 reactions:
# (§5) The enzymes are then diluted in the following manner, for 10 reactions: • Taq (5U/μL): 10×0.1 μL of Taq+10×15.5 μL of H2O • Klenow (20U/μL): 10×0.1 μL of Klenow+10×15.5 μL of H2O • Klenow Exo Free (5U/μL): 10×0.1 μL of Klenow Exo Free+10×15.5 μL of H2O.
# (§6) Solutions containing the normal nucleoside triphosphates are also prepared: • Solution “2P” composed of a mixture of dGTP and dTTP each at 0.1 mM • Solution “4P” composed of a mixture of dATP, dCTP, dGTP and dTTP each at 0.1 mM
# (§7) The implementation reactions are described in Table 14 below:
# (§8) The morpholino A putrescine is thus tested at three concentrations: 400, 200 and 50 μM, while the morpholino A fluorescein is reacted at 2.5 mM, 400, 200 and 50 μM.
# (§9) Before adding the enzyme, the mixture is denatured at 94° C. for 5 minutes. It is then left to return to ambient temperature in order for the hybridization to take place. The elongation is carried out at 70° C. for the Taq and at 37° C. for the two Klenow fragments, and for 10 minutes. Finally, the medium is again denatured with a formamide solution and heating at 90° C. for 5 minutes, after which it is placed on a polyacrylamide gel. The separation is carried out by electrophoresis at 2000 V. The gel is read using a Phosphorimager; the results obtained are given in FIG. 4.
# (§10) In this figure, the lanes 1 serve as migration control for the labelled oligonucleotide A. This oligonucleotide has a length of 13 bases (13-mer). Lanes 2, 3 and 4 allow the elongation of the oligonucleotide A and the incorporation of the morpholino A putrescine to be monitored. Under these conditions, only the nucleotides dGTP and dTTP (solution “2P”) were added and can be used by the enzyme to carry out the extention of the primer. The presence of the morpholino A putrescine in the reaction medium allows its incorporation at the level of base 18. A control was carried out, placing in the medium only the “2P” mixture; in this case, the enzyme continues its extension up to the 17th base since it has no adenosine derivative to continue its polymerization. […] Reactions 5 to 8 correspond to the same reactions with morpholino A fluorescein. […] It is noted, however, for the two Klenow fragments, that there was occasionally incorporation of another base (G or T) in place of the morpholino derivative. Specifically, in these cases, elongation products corresponding to the 18-mer and 24-mer are found. […]
# Klenow fragment = molecular target: T3, Klenow fragment (Escherichia coli, UniProt P00582); experiment: as above; details: for enzymatic incorporation at 3' end of primer A: MATPP 400, 200, 50 μM, MATPPF 2.5 mM, 400, 200, 50 μM, 37° C., 10 minutes; for interruption of chain elongation after incorporation: with dGTP and dTTP (solution 2P), FIG. 4
# T3 construct: the Klenow fragment (Boehringer Mannheim); purchased Boehringer Mannheim
# Procedure: as §1, §2, §3, §4, §5, §6, §7, §8, §9, §10
# Taq DNA polymerase = molecular target: T4, Taq DNA polymerase (Thermus aquaticus, UniProt P19821); experiment: as above; details: for enzymatic incorporation at 3' end of primer A: MATPP 400, 200, 50 μM, MATPPF 2.5 mM, 400, 200, 50 μM, 70° C., 10 minutes; for interruption of chain elongation after incorporation: with dGTP and dTTP (solution 2P), FIG. 4
# T4 construct: purchased Boehringer Mannheim
# Procedure: as §1, §2, §3, §4, §5, §6, §7, §8, §9, §10
# Taq polyerase = molecular target: T5, Taq polyerase (Thermus aquaticus, UniProt P19821); experiment: Sequencing reaction with fluorescent primers on Bluescript plasmid DNA (Example 14); details: fluorescence detection of the sequencing products
# T5 construct: purchased Perkin-Elmer
# Procedure: Morpholino A putrescine (MATPP) 7 and morpholino A fluorescein (MATPPF) 12 are tested in squencing reaction with fluorescent primers (Applied Biosystems, Perkin-Elmer, Foster City, Calif., USA) on a standard template which is a Bluescript plasmid DNA (Stratagene, La Jolla, Calif., USA). The enzyme used is a Taq polyerase (Perkin-Elmer) which is used in its buffer (Thermo Sequenase buffer, Amersham Life Science).
# Three sequencing reactions are carried out with MATPP at 100, 200 and 400 μM and four sequencing reactions are carried out with MATPPF at 200, 500, 1000 and 5000 μM, along with control reactions with the dideoxynucleotide ddATP at a concentration of 250 μM (Boehringer).
# The reaction medium, of a total volume of 10 μL, contains 125 ng of template, 1.25 pmol of fluorescent primer and the other constituents as described in the tables.
# The medium is subjected to heating cycles in order to produce in number molecules of newly formed DNA strands. […]
# The amplification products are purified on a Sephadex G50 column. The products of each sequencing reaction are mixed with the products of a control reaction and analysed by electrophoresis. […]
# T2 sequence (P00582 324-928 D355A/E357A): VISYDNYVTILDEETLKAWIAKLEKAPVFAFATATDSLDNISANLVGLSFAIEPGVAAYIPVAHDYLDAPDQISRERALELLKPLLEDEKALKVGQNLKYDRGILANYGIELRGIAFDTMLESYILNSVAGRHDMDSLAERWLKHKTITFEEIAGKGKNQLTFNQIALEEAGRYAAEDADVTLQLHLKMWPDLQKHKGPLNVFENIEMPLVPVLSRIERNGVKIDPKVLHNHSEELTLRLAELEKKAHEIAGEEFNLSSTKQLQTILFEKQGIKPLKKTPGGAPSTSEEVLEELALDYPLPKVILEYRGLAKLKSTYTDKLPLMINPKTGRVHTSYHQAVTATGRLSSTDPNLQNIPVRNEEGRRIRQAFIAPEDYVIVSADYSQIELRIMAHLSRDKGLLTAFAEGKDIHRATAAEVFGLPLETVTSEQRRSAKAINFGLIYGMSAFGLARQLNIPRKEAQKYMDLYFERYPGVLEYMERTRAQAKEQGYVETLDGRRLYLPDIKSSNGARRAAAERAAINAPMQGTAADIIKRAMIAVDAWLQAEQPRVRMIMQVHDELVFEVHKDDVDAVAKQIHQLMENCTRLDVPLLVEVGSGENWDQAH
# T4 sequence (P19821 whole entry): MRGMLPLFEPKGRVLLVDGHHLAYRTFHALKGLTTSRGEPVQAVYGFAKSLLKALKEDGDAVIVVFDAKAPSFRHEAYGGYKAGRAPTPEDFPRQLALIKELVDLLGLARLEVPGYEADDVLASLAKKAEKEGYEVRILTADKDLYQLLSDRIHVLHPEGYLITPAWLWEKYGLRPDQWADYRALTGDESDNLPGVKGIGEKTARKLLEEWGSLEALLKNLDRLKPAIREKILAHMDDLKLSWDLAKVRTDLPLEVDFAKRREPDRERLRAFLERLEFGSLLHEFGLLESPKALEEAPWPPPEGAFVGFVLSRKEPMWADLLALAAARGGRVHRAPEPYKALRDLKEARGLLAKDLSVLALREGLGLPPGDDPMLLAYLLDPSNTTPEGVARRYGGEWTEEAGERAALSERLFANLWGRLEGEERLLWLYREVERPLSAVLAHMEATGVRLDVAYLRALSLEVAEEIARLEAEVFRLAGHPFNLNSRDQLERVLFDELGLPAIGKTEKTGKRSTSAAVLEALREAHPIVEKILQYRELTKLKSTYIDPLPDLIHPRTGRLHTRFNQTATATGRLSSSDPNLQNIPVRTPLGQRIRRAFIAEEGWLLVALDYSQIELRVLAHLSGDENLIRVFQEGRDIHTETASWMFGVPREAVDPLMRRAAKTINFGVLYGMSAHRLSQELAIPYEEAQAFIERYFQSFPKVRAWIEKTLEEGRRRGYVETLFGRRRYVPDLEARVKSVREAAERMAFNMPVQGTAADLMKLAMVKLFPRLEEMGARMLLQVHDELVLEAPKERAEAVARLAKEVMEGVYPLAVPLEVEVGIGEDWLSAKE
# T3 sequence (P00582 324-928): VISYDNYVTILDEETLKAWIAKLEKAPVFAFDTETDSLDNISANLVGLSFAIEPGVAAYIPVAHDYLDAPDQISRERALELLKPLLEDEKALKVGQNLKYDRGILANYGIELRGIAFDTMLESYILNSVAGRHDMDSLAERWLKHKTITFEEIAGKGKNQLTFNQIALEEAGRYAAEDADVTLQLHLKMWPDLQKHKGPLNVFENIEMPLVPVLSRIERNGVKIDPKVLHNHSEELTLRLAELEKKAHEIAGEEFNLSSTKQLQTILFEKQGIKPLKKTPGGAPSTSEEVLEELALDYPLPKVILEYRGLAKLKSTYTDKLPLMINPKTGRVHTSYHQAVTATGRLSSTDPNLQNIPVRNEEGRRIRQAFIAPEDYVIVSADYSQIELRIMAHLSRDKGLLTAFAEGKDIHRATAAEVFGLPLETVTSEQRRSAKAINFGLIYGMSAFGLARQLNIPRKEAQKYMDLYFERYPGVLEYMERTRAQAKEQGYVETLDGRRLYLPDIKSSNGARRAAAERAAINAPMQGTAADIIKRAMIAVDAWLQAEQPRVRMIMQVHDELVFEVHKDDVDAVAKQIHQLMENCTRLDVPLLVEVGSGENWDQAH
# T1 sequence (P19821 whole entry): as the sequence (P19821 whole entry) above
# T5 sequence (P19821 whole entry): as above
Compound,action as chain terminator in sequencing reaction (Taq polymerase),incorporation by the Taq polymerase in sequencing reaction (Taq polymerase),enzymatic incorporation at 3' end of primer A [1],interruption of chain elongation after incorporation [1],enzymatic incorporation at 3' end of primer A (Klenow fragment),interruption of chain elongation after incorporation (Klenow fragment),enzymatic incorporation at 3' end of primer A (Taq DNA polymerase),interruption of chain elongation after incorporation (Taq DNA polymerase),detection of sequencing reaction products (Taq polyerase)
4-(carboxymethyl)-2-(thymidin-1-yl)-6-(hydroxymethyl)morpholine 6-triphosphate [morpholino T glycine],acts correctly as a chain terminator,correctly incorporated in a base-specific manner,–,–,–,–,–,–,–
Nc1ncnc2c1ncn2C1CN(CCCCNC(=S)Nc2ccc3c(c2)C(=O)OC32c3ccc(O)cc3Oc3cc(O)ccc32)CC(COP(=O)(O)OP(=O)(O)OP(=O)(O)O)O1 (stereo not drawn) [morpholino A fluorescein],–,–,incorporate,stops the polymerization of the complementary strand,incorporate,stops the polymerization of the complementary strand,incorporate,stops the polymerization of the complementary strand,detected by means of the fluorophore borne by this derivative
4-(aminobutyl)-2-(adenosin-9-yl)-6-(hydroxymethyl)morpholine 6-triphosphate [morpholino A putrescine],–,–,incorporate,interruption of the elongation of the chain,incorporate,interruption of the elongation of the chain,incorporate,interruption of the elongation of the chain,–
